# Laboratory results taken from article PMC8395214, “Promising Anticancer Activity of [Bis(1,8-quinolato)palladium (II)] Alone and in Combination” (International Journal of Molecular Sciences, 2021).
# Read-outs that look alike come from different tables or passages of the source.
# Key:
# [1] = tested on: Raji (lymphoma), Hela (cervical) and PC-3 (prostate) cancer cell line; settings: cited from earlier work
# [2] = tested on: A2780 cell line; assay: Binary sequenced combination study (MTT, CI and dose-effect parameters); format: cell-based, human; settings: single drug; for IC50: read-out: Dm (median effect dose)
# Procedure: (§1) Binary sequenced combinations of NH3 with curcumin and EGCG have been investigated in both ovarian and colorectal cancer models using four different cell lines.
# (§2) The method for determining single drug cytotoxicity and activity of drugs in sequenced combination was the same as described in our previous articles. […] The plates were then left to incubate under normal growth conditions for 72 h. […] Four hours after the addition of the MTT solution (50 µL per well of 1 mg/mL MTT solution), the purple formazan crystals produced from the reduction of MTT were dissolved in 150 µL DMSO and read with a iMarkTM Bio-Rad Microplate Reader Version 1.04.02.E. The IC50 values were obtained from the results of at least three independent experiments. Proteomic study was conducted following same procedure mentioned before in our published research article.
# [3] = tested on: A2780^cisR cell line; assay: as above; format: cell-based, human; settings: single drug; for IC50: read-out: Dm (median effect dose)
# Procedure: as §1, §2
# [4] = tested on: HT-29 cell line; assay: as above; format: cell-based, human; settings: single drug; for IC50: read-out: Dm (median effect dose)
# Procedure: as §1, §2
# [5] = tested on: Caco-2 cell line; assay: as above; format: cell-based, human; settings: single drug; for IC50: read-out: Dm (median effect dose)
# Procedure: as §1, §2
# [6] = tested on: A2780^cisR cell line; format: cell-based, human
# Excerpt: (§3) The study has provided information on the underlying mechanism of antitumor activity of NH3 alone in different cell lines. Total of 19 (seven from A2780 cell line, nine from A2780^cisR cell line and three from HT-29 cell line) proteins have been identified from the present study that underwent significant changes in expression following treatment with NH3 alone. Change in folds of the respective proteins after treatment with NH3 alone is shown in Table 2 (A2780 cell line), Table 3 (A2780^cisR cell line) and Table 4 (HT-29 cell line).
# as §2
# [7] = tested on: A2780^cisR; assay: MTT reduction assay, cytotoxicity; format: cell-based, human; settings: A2780^cisR cell line
# Procedure: (§4) Dose response curves have been presented in Supplementary File (Figures S1–S5).
# as §2
# [8] = tested on: A2780^ZDO473R; assay: MTT reduction assay, cytotoxicity; format: cell-based, human
# Procedure: as §4, §2
# [9] = tested on: MCF-7; assay: MTT reduction assay, cytotoxicity; format: cell-based, human; settings: MCF-7 cell line
# Procedure: as §4, §2
# [10] = tested on: A2780; assay: MTT reduction assay, cytotoxicity; format: cell-based, human; settings: parent ovarian A2780 cell line
# Procedure: as §4, §2
# [11] = tested on: Hela; assay: MTT reduction assay, cytotoxicity; format: cell-based, human; settings: Hela cell line
# Procedure: as §4, §2
# [12] = tested on: A2780 cell line; assay: Proteomic study, protein expression after treatment with NH3 alone; format: cell-based, human
# Excerpt: as §3, §2
# [13] = tested on: HT-29 cell line; assay: as above; format: cell-based, human
# Excerpt: as §3, §2
# [14] = tested on: Swiss-albino adult male mice; assay: Twenty days in vivo toxicity study; settings: for Survival of mice till the end of the experiment: subcutaneous, twenty days study; for Creatinine / SGOT / SGPT: serum
# Procedure: Experimental animals: Thirty six Swiss-albino adult male mice (body weight range 20 ± 5 gm) were purchased from the Department of Pharmacy, Jahangirnagar University, Bangladesh. Mice were housed in a 12 h day night cycle (light on at 7 am and off at 7 pm) providing bench light of 350 lux, at 25 ± 2 °C temperature and 55 ± 10% humidity. Mice were reared in the cages (580 × 375 × 190 mm), supplied with commercially available food pellet [Rodent diet, ICDDRB, Bangladesh] and drinking water ad libitum. Body weight of each mouse was measured twice every day and other physical changes recorded.
# Animal sacrifice, blood and organs collection: Twenty four hours following the last treatment and test, the mice were kept in fasting overnight. Then, they were anaesthetized with intraperitoneal injection of sodium pentobarbital (35 mg/kbw) [Phenobarbital, Incepta Pharmaceuticals, Bangladesh] and sacrificed as shown in Table 9
# Blood was collected immediately, centrifuged at 1000 rpm, collected plasma and serum were preserved at –80 °C for biochemical study (SGPT, SGOT and Creatinine). Biochemical investigations were carried out in an auto analyzer (Photometer 5010 V5+, Robert Riely, Berlin, Germany) using Sigma Aldrich (Saint Louis, MO, USA) reagent kit. The mice model preliminary toxicity study was approved by the Biosafety, Biosecurity and Ethical Committee [Approval Number: BBEC-JU/M2019(12)1] of Jahangirnagar University, Savar, Dhaka, Bangladesh. Statistical analysis was conducted through SPSS using Satterthwaite’s method for equality of variances.
smiles,measurement,setting,value
Oc1cccc2cccnc12 [8-Hydroxyquinoline],Antitumor activity,[1],significant antitumor activity
"COc1cc(/C=C/C(=O)CC(=O)/C=C/c2ccc(O)c(OC)c2)ccc1O [Curcumin, curcumin]",IC50,[2]; Homo sapiens,8.63 µM
same,m (exponent defining the shape of the dose–effect curve),[2],1.25
same,IC50,"[3]; Homo sapiens, A2780cisR",16.7 µM
same,m (exponent defining the shape of the dose–effect curve),[3],1.56
same,IC50,[4]; Homo sapiens,16.6 µM
same,m (exponent defining the shape of the dose–effect curve),[4],1.25
same,IC50,[5]; Homo sapiens,21.9 µM
same,m (exponent defining the shape of the dose–effect curve),[5],1.08
"O=C(O[C@@H]1Cc2c(O)cc(O)cc2O[C@@H]1c1cc(O)c(O)c(O)c1)c1cc(O)c(O)c(O)c1 [EGCG, epigallocatechin gallate]",m (exponent defining the shape of the dose–effect curve),[2],0.94
same,IC50,[2],10.3 µM
same,m (exponent defining the shape of the dose–effect curve),[3],0.93
same,IC50,[3],8.9 µM
same,m (exponent defining the shape of the dose–effect curve),[4],0.39
same,IC50,[4],3.67 µM
same,m (exponent defining the shape of the dose–effect curve),[5],1.32
same,IC50,[5],108 µM
"[O-]c1cccc2cccnc12.[O-]c1cccc2cccnc12.[Pd+2] [NH3, [Bis(1,8-quinolato)palladium (II)]]",m (exponent defining the shape of the dose–effect curve),[2],1.97
same,IC50,[2],0.18 µM
same,m (exponent defining the shape of the dose–effect curve),[3],2.05
same,IC50,[3],0.23 µM
same,m (exponent defining the shape of the dose–effect curve),[4],2.06
same,IC50,[4],0.38 µM
same,m (exponent defining the shape of the dose–effect curve),[5],1.96
same,IC50,[5],0.56 µM
same,"Change in Expression: Actin, cytoplasmic 1",[6]; spot 1,Downregulated
same,"Fold change: Actin, cytoplasmic 1","[6]; spot 1, Downregulated",1.51
same,Change in Expression: 40S ribosomal protein SA,[6]; spot Cn9,Downregulated
same,Fold change: 40S ribosomal protein SA,"[6]; spot Cn9, Downregulated",2.98
same,Change in Expression: Heat shock cognate 71 kDa protein,[6]; spot Cn16,Downregulated
same,Fold change: Heat shock cognate 71 kDa protein,"[6]; spot Cn16, Downregulated",1.69
same,"Fold change: Keratin, type II cytoskeletal 1","[6]; spot Cn23, Upregulated",2.47
same,"Change in Expression: Elongation factor Tu, mitochondrial",[6]; spot Cn34,Downregulated
same,"Fold change: Elongation factor Tu, mitochondrial","[6]; spot Cn34, Downregulated",7.86
same,"Change in Expression: Citrate synthase, mitochondrial",[6]; spot Cn41,Downregulated
same,"Fold change: Citrate synthase, mitochondrial","[6]; spot Cn41, Downregulated",2.93
same,Change in Expression: Transitional endoplasmic reticulum ATPase,[6]; spot Cn56,Downregulated
same,Fold change: Transitional endoplasmic reticulum ATPase,"[6]; spot Cn56, Downregulated",3.87
same,Change in Expression: Cofilin-1,[6]; spot Cn69,Downregulated
same,Fold change: Cofilin-1,"[6]; spot Cn69, Downregulated",2.27
same,"Change in Expression: Actin, cytoplasmic 1",[6]; spot Cn79,Downregulated
same,"Fold change: Actin, cytoplasmic 1","[6]; spot Cn79, Downregulated",2.79
same,times greater activity than cisplatin,[7],90 times
same,times greater activity than cisplatin,[8],80 times
same,times greater cytotoxicity than cisplatin,[9],around 65 times
same,times greater activity than cisplatin,[10],10 times
same,times greater cytotoxicity than cisplatin,[11],around 10 times
same,"Change in Expression: Actin, cytoplasmic 1",[12]; spot 6,Downregulated
same,"Fold change: Actin, cytoplasmic 1","[12]; spot 6, Downregulated",4.8
same,Change in Expression: Vimentin,[12]; spot 12,Downregulated
same,Fold Change: Vimentin,"[12]; spot 12, Downregulated",1.63
same,"Change in Expression: 60 kDa heat shock protein, mitochondrial",[12]; spot 13,Downregulated
same,"Fold Change: 60 kDa heat shock protein, mitochondrial","[12]; spot 13, Downregulated",3.23
same,Change in Expression: Endoplasmin,[12]; spot 18,Downregulated
same,Fold Change: Endoplasmin,"[12]; spot 18, Downregulated",4.56
same,Change in Expression: 78 kDa glucose-regulated protein,[12]; spot 45,Downregulated
same,Fold Change: 78 kDa glucose-regulated protein,"[12]; spot 45, Downregulated",2.00
same,Change in Expression: Polyubiquitin-B,[12]; spot 118,Downregulated
same,Fold Change: Polyubiquitin-B,"[12]; spot 118, Downregulated",11.39
same,Change in Expression: Histone H3.3,[12]; spot 155,Downregulated
same,Fold Change: Histone H3.3,"[12]; spot 155, Downregulated",6.63
same,Change in Expression: Nucleoside Diphosphate kinase B,[13]; spot Hn70,Downregulated
same,Fold Change: Nucleoside Diphosphate kinase B,"[13]; spot Hn70, Downregulated",2.14
same,Change in Expression: Annexin A1,[13]; spot Hn89,Downregulated
same,Fold Change: Annexin A1,"[13]; spot Hn89, Downregulated",1.85
same,Change in Expression: Histone H4,[13]; spot Hn119,Downregulated
same,Fold Change: Histone H4,"[13]; spot Hn119, Downregulated",1.91
same,Change in mean body weight of mice,"[14]; both lower (2.5 mg/kg) and higher (5 mg/kg) doses, vs control groups",Decrease in body weight is also significant
same,Toxicity compared to cisplatin,"[14]; both lower (2.5 mg/kg) and higher doses (5 mg/kg), twenty days",less toxic
same,Survival of mice till the end of the experiment,[14]; higher dose 5 mg/kg,only one mouse died
same,Survival of mice till the end of the experiment,[14]; lower dose 2.5 mg/kg,All mice were alive
same,Creatinine,[14]; 2.5 mg/kg,0.9 ± 0.2 mg/dL
same,SGOT,[14]; 2.5 mg/kg,53 ± 4 IU/L
same,SGPT,[14]; 2.5 mg/kg,45 ± 3 IU/L
same,Creatinine,[14]; 5 mg/kg,0.7 ± 0.2 mg/dL
same,SGOT,[14]; 5 mg/kg,59 ± 5 IU/L
same,SGPT,[14]; 5 mg/kg,48 ± 4 IU/L
